{"source": "patent US20250366475A1", "about": "“HERBICIDAL COMBINATIONS AND A METHOD FOR CONTROLLING UNDESIRED VEGETATION” (UPL Mauritius Limited, priority 2022, published 2025)", "system": "Brachiaria decumbens", "assay": "Post-emergence herbicidal activity, efficacy on Brachiaria decumbens (Colby method for expected efficacy)", "type": "in vivo", "description": "Methodology: Trials were conducted to evaluate the efficacy of the combinations comprising L-glufosinate ammonium and the additional herbicides on Brachiaria genus weeds.\nAll treatments were in 4 replications per treatment with a spray volume of about 150 L/ha.\nEfficacy Evaluation: The expected efficacy of a combination comprising L-glufosinate ammonium and additional herbicides was calculated using the well-established Colby method.\nIn the Colby method, the expected (or predicted) response of a combination of herbicides is calculated by taking the product of the observed response for each individual component of the combination when applied alone, divided by 100, and subtracting this value from the sum of the observed response for each component when applied alone. An unexpected enhancement in efficacy of the combination is then determined by comparing the observed response of the combination to the expected (or predicted) response as calculated from the observed response of each individual component alone. […] The Colby method requires only a single dose of each herbicide applied alone and the mixture of both doses. The formula used to calculate the expected efficacy (EE) which was compared with the observed efficacy (OE) to determine the efficacy of the present disclosure is explained hereinbelow:\nThe expected efficacy for a combination of two active ingredients is as follows:\n[formula] • wherein, • A=Observed efficacy of active ingredient A at the same concentration as used in the mixture. • B=Observed efficacy of the active ingredient B at the same concentration as used in the mixture."}
{"smiles": "Cc1ccc2c(c1)[C@H](Nc1nc(N)nc(C(C)F)n1)[C@@H](C)C2", "note": "(some centres unmarked) [Indaziflam]", "values": [{"measurement": "Observed efficacy (%)", "setting": "50 g a.i./ha, 7 DAA, Table 8", "result": 50, "unit": "%"}, {"measurement": "Observed efficacy (%)", "setting": "50 g a.i./ha, 14 DAA, Table 8", "result": 75, "unit": "%"}, {"measurement": "Observed efficacy (%)", "setting": "50 g a.i./ha, 21 DAA, Table 8", "result": 90, "unit": "%"}]}
{"smiles": "CS(=O)(=O)c1cc(C(F)(F)F)ccc1C(=O)c1cnoc1C1CC1", "note": "[Isoxaflutole]", "values": [{"measurement": "Observed efficacy (%)", "setting": "60 g a.i./ha, 7 DAA, Table 9", "result": 45, "unit": "%"}, {"measurement": "Observed efficacy (%)", "setting": "60 g a.i./ha, 14 DAA, Table 9", "result": 70, "unit": "%"}, {"measurement": "Observed efficacy (%)", "setting": "60 g a.i./ha, 21 DAA, Table 9", "result": 85, "unit": "%"}, {"measurement": "Observed efficacy (%)", "setting": "60 g a.i./ha, 28 DAA, Table 9", "result": 75, "unit": "%"}]}
{"smiles": "CP(=O)(O)CC[C@H](N)C(=O)O.N", "note": "[L-glufosinate ammonium]", "values": [{"measurement": "Observed efficacy (%)", "setting": "150 g a.i./ha, 3 DAA, Table 13", "result": 40, "unit": "%"}, {"measurement": "Observed efficacy (%)", "setting": "150 g a.i./ha, 3 DAA, Table 16", "result": 40, "unit": "%"}, {"measurement": "Observed efficacy (%)", "setting": "150 g a.i./ha, 7 DAA, Table 7", "result": 65, "unit": "%"}, {"measurement": "Observed efficacy (%)", "setting": "150 g a.i./ha, 7 DAA, Table 8", "result": 75, "unit": "%"}, {"measurement": "Observed efficacy (%)", "setting": "150 g a.i./ha, 7 DAA, Table 9", "result": 70, "unit": "%"}, {"measurement": "Observed efficacy (%)", "setting": "150 g a.i./ha, 7 DAA, Table 10", "result": 65, "unit": "%"}, {"measurement": "Observed efficacy (%)", "setting": "150 g a.i./ha, 7 DAA, Table 11", "result": 75, "unit": "%"}, {"measurement": "Observed efficacy (%)", "setting": "150 g a.i./ha, 7 DAA, Table 12", "result": 65, "unit": "%"}, {"measurement": "Observed efficacy (%)", "setting": "150 g a.i./ha, 14 DAA, Table 7", "result": 70, "unit": "%"}, {"measurement": "Observed efficacy (%)", "setting": "150 g a.i./ha, 14 DAA, Table 8", "result": 65, "unit": "%"}, {"measurement": "Observed efficacy (%)", "setting": "150 g a.i./ha, 14 DAA, Table 9", "result": 65, "unit": "%"}, {"measurement": "Observed efficacy (%)", "setting": "150 g a.i./ha, 14 DAA, Table 10", "result": 70, "unit": "%"}, {"measurement": "Observed efficacy (%)", "setting": "150 g a.i./ha, 14 DAA, Table 11", "result": 85, "unit": "%"}, {"measurement": "Observed efficacy (%)", "setting": "150 g a.i./ha, 14 DAA, Table 12", "result": 70, "unit": "%"}, {"measurement": "Observed efficacy (%)", "setting": "150 g a.i./ha, 14 DAA, Table 15", "result": 75, "unit": "%"}, {"measurement": "Observed efficacy (%)", "setting": "150 g a.i./ha, 21 DAA, Table 7", "result": 70, "unit": "%"}, {"measurement": "Observed efficacy (%)", "setting": "150 g a.i./ha, 21 DAA, Table 8", "result": 60, "unit": "%"}, {"measurement": "Observed efficacy (%)", "setting": "150 g a.i./ha, 21 DAA, Table 9", "result": 60, "unit": "%"}, {"measurement": "Observed efficacy (%)", "setting": "150 g a.i./ha, 21 DAA, Table 10", "result": 70, "unit": "%"}, {"measurement": "Observed efficacy (%)", "setting": "150 g a.i./ha, 21 DAA, Table 11", "result": 85, "unit": "%"}, {"measurement": "Observed efficacy (%)", "setting": "150 g a.i./ha, 21 DAA, Table 12", "result": 70, "unit": "%"}, {"measurement": "Observed efficacy (%)", "setting": "150 g a.i./ha, 21 DAA, Table 15", "result": 70, "unit": "%"}, {"measurement": "Observed efficacy (%)", "setting": "150 g a.i./ha, 28 DAA, Table 7", "result": 60, "unit": "%"}, {"measurement": "Observed efficacy (%)", "setting": "150 g a.i./ha, 28 DAA, Table 9", "result": 60, "unit": "%"}, {"measurement": "Observed efficacy (%)", "setting": "150 g a.i./ha, 28 DAA, Table 10", "result": 60, "unit": "%"}, {"measurement": "Observed efficacy (%)", "setting": "150 g a.i./ha, 28 DAA, Table 11", "result": 85, "unit": "%"}, {"measurement": "Observed efficacy (%)", "setting": "150 g a.i./ha, 28 DAA, Table 12", "result": 60, "unit": "%"}, {"measurement": "Observed efficacy (%)", "setting": "150 g a.i./ha, 28 DAA, Table 14", "result": 60, "unit": "%"}, {"measurement": "Observed efficacy (%)", "setting": "150 g a.i./ha, 28 DAA, Table 15", "result": 60, "unit": "%"}, {"measurement": "Observed efficacy (%)", "setting": "150 g a.i./ha, 35 DAA, Table 14", "result": 55, "unit": "%"}, {"measurement": "Observed efficacy (%)", "setting": "150 g a.i./ha, 35 DAA, Table 15", "result": 55, "unit": "%"}]}
{"smiles": "CCc1cccc(C)c1N(COC(C)C)C(=O)CCl", "note": "[Propisochlor]", "values": [{"measurement": "Observed efficacy (%)", "setting": "540 g a.i./ha, 7 DAA, Table 12", "result": 0, "unit": "%"}, {"measurement": "Observed efficacy (%)", "setting": "540 g a.i./ha, 14 DAA, Table 12", "result": 0, "unit": "%"}, {"measurement": "Observed efficacy (%)", "setting": "540 g a.i./ha, 21 DAA, Table 12", "result": 0, "unit": "%"}, {"measurement": "Observed efficacy (%)", "setting": "540 g a.i./ha, 28 DAA, Table 12", "result": 0, "unit": "%"}]}
{"smiles": "Cn1nc(C(F)(F)F)c(CS(=O)(=O)C2=NOC(C)(C)C2)c1OC(F)F", "note": "[Pyroxasulfone]", "values": [{"measurement": "Observed efficacy (%)", "setting": "75 g a.i./ha, 7 DAA, Table 10", "result": 0, "unit": "%"}, {"measurement": "Observed efficacy (%)", "setting": "75 g a.i./ha, 14 DAA, Table 10", "result": 15, "unit": "%"}, {"measurement": "Observed efficacy (%)", "setting": "75 g a.i./ha, 21 DAA, Table 10", "result": 25, "unit": "%"}, {"measurement": "Observed efficacy (%)", "setting": "75 g a.i./ha, 28 DAA, Table 10", "result": 20, "unit": "%"}]}
{"smiles": "CCc1cccc(C)c1N(C(=O)CCl)[C@@H](C)COC", "note": "[S-metolachlor]", "values": [{"measurement": "Observed efficacy (%)", "setting": "960 g a.i./ha, 7 DAA, Table 7", "result": 0, "unit": "%"}, {"measurement": "Observed efficacy (%)", "setting": "960 g a.i./ha, 14 DAA, Table 7", "result": 0, "unit": "%"}, {"measurement": "Observed efficacy (%)", "setting": "960 g a.i./ha, 21 DAA, Table 7", "result": 0, "unit": "%"}, {"measurement": "Observed efficacy (%)", "setting": "960 g a.i./ha, 28 DAA, Table 7", "result": 0, "unit": "%"}]}
{"smiles": "CS(=O)(=O)c1ccc(C(=O)C2C(=O)CCCC2=O)c([N+](=O)[O-])c1", "note": "[mesotrione, Mesotrione]", "values": [{"measurement": "Observed efficacy (%)", "setting": "100 g a.i./ha, 3 DAA, Table 16", "result": 10, "unit": "%"}]}
{"smiles": "CCN(CC)C(=O)C(C)Oc1cccc2ccccc12", "note": "(centres unmarked) [napropamide, Napropamide]", "values": [{"measurement": "Observed efficacy (%)", "setting": "675 g a.i./ha, 7 DAA, Table 11", "result": 5, "unit": "%"}, {"measurement": "Observed efficacy (%)", "setting": "675 g a.i./ha, 14 DAA, Table 11", "result": 5, "unit": "%"}, {"measurement": "Observed efficacy (%)", "setting": "675 g a.i./ha, 21 DAA, Table 11", "result": 5, "unit": "%"}, {"measurement": "Observed efficacy (%)", "setting": "675 g a.i./ha, 28 DAA, Table 11", "result": 0, "unit": "%"}]}
{"smiles": "CCOC(=O)C(C)Oc1ccc(Oc2cnc3cc(Cl)ccc3n2)cc1", "note": "(centres unmarked) [quizalofop-ethyl, Quizalofop-ethyl]", "values": [{"measurement": "Observed efficacy (%)", "setting": "25 g a.i./ha, 28 DAA, Table 14", "result": 35, "unit": "%"}, {"measurement": "Observed efficacy (%)", "setting": "25 g a.i./ha, 35 DAA, Table 14", "result": 30, "unit": "%"}]}
{"smiles": "C[C@@H](Oc1ccc(Oc2cnc3cc(Cl)ccc3n2)cc1)C(=O)OCC1CCCO1", "note": "(some centres unmarked) [quizalofop-p-tefuryl, Quizalofop-p-tefuryl]", "values": [{"measurement": "Observed efficacy (%)", "setting": "25 g a.i./ha, 14 DAA, Table 15", "result": 20, "unit": "%"}, {"measurement": "Observed efficacy (%)", "setting": "25 g a.i./ha, 21 DAA, Table 15", "result": 10, "unit": "%"}, {"measurement": "Observed efficacy (%)", "setting": "25 g a.i./ha, 28 DAA, Table 15", "result": 5, "unit": "%"}, {"measurement": "Observed efficacy (%)", "setting": "25 g a.i./ha, 35 DAA, Table 15", "result": 5, "unit": "%"}]}
{"smiles": "CS(=O)(=O)c1ccc(C(=O)C2C(=O)CCCC2=O)c(Cl)c1COCC(F)(F)F", "note": "[tembotrione, Tembotrione]", "values": [{"measurement": "Observed efficacy (%)", "setting": "53 g a.i./ha, 3 DAA, Table 13", "result": 8, "unit": "%"}]}
